Assay results as given in patent US20110244589A1, “IN-VIVO PLATELET FUNCTION TEST BY ONLINE BLEEDING VOLUME MEASUREMENT” (priority 2009, published 2011).

Tests used:
platelet function [1] = experiment: bleeding volume test (in-vivo, blotter paper blotch area); design: species or system patient; conditions: after taking an aspirin, versus before
Source text: Bleeding volume is the volume of blood lost during a bleeding time test. Bleeding time is a total length of time between the moment a standardized tiny superficial incision is made in the skin of a patient and the moment the bleeding stops. […] The blotter paper 14 absorbs the blood 16 oozing out of the incision 18 until the patient 10 stops bleeding. One or more blotter papers 14 may be necessary to absorb all of the blood 16.
The in-vivo bleeding volume test results of the patient 10 is indicative of a patient's excessive bleeding tendencies, platelet function and platelet number.
Referring now to FIG. 1, a medical professional conducts the following procedure on the patient 10 being treated. The conditions for consistent blood flow and clotting may be set up. For example, the incision area may be wiped with alcohol which is allowed to completely dry. The patient may either sit in a chair with the forearm in a comfortable stable position or reclining with the forearm at heart level. A blood pressure (e.g., sphygmomanometer) cuff 26 may be placed on an upper arm 22 of the patient 10. By way of example and not limitation, the blood pressure cuff 26 may be inflated to about 40 mm Hg to regulate a constant venous blood pressure in the forearm 24 of the patient 10. […] A round disc blotter paper 14 typically used for determining bleeding time may be placed at the edge of the incision 18. […]

platelet function [2] = conditions: background statement on the bleeding time test; cited from earlier work
platelet function [3] = experiment: bleeding time test (in-vivo); design: species or system patient; conditions: after taking an aspirin, versus before
Source text: The bleeding time of a patient, which is the length of time blood continues to flow after the skin of a patient has been punctured or cut, has been used to identify patients having abnormal bleeding tendencies or platelet dysfunction or low number of platelets. The bleeding time test is an in-vivo test which involves making a standardized incision on the skin then applying a round disc of standardized blotter paper to the enlarging blood droplet adjacent to the incision for precisely thirty (30) seconds, then rotating the blotter paper and applying a fresh edge of the disc to the bleeding incision, and repeating this process until bleeding has stopped. The sequential blotches of blood on the blotter paper should not intersect. The total number of dried blotches of blood on the blotter paper divided by the number two (2) gives the duration of bleeding in minutes. […] The conditions for consistent blood flow and clotting may be set up. For example, the incision area may be wiped with alcohol which is allowed to completely dry. […] To calculate the total bleeding time, the number of blotches 28 may be counted and divided by two to arrive at the bleeding time to the nearest thirty (30) second interval. Alternatively, the bleeding time may be calculated with a stopwatch.

CC(=O)Oc1ccccc1C(=O)O [aspirin]
increases bleeding volume (platelet function [1]): 400%
difference in mean bleeding time of persons who take aspirin and those that take no medication (platelet function [2]): ≤ 2 standard deviations
increase the bleeding time (platelet function [3]): 72%
